Where “and” joins values, the source holds several entries; their conditions need not be identical. Identical values can stand only once.
Experiments:
[1] = tested on: rats; conditions: cited from earlier work
[2] = tested on: 55 molecular targets, including neurotransmitter receptors, ion channels, and transporters; assay: Cerep ExpresSProfile off-target panel; type: binding; conditions: 10 μmol/L
[3] = Pharmacokinetic study in rats; type: in vivo; conditions: rat, plasma
[4] = Spontaneous locomotor activity in rats; type: in vivo, rat; conditions: up to 100 mg/kg, data not shown
[5] = tested on: rats; assay: Rat EEG; type: in vivo; conditions: 100 mg/kg p.o., vs vehicle
[6] = Brain penetration: plasma and brain concentrations in rats; conditions: rat, in vivo, po
[7] = tested on: OX2 receptor; conditions: agonist ref 21; cited from earlier work
[8] = tested on: OX2 receptor; conditions: cited from earlier work

Cc1cc(C)nc(N2CC3CN(C(=O)c4c(F)cccc4-n4nccn4)CC3C2)n1 (stereo not shown) [JNJ‐42847922]
effect on REM sleep ([1]; rats ref 19, 23): did not exert a significant effect | effect on NREM sleep time ([1]; rats, first 2 hours of sleep ref 19, 23): prolonged

COc1c(C#N)ccnc1N1C2CCC1CN(C(=O)c1cccnc1-n1cccn1)C2 [SDM‐878, 2‐(3‐(2‐(1H‐pyrazol‐1‐yl)nicotinoyl)‐3,8‐diazabicyclo[3.2.1]octan‐8‐yl)‐3‐methoxyisonicotinonitrile]
inhibitory effects on 55 other molecular targets [2]: ≤ 50% | half-life ([3]; iv, 1 mg/kg): 22.2 min | Cmax ([3]; po, 30 mg/kg): 1180 ng/mL | Tmax ([3]; po, 30 mg/kg): 15 min | half-life ([3]; po, 30 mg/kg): 25.8 min | effect on spontaneous locomotor activity [4]: did not affect | effect on duration of REM sleep [5]: did not observe a significant effect | effect on duration of NREM sleep ([5]; P < .05): significantly increased | effect on time spent in wakefulness ([5]; P < .05): significantly decreased | effect on total sleep ([5]; P < .05): significantly increased | concentration at 30 min ([6]; 30 mg/kg): 110 ng/mL and 28 ng/g | concentration at 30 min ([6]; 100 mg/kg): 601 ng/mL and 198 ng/g

[Ala^11, D‐Leu^15]‐orexin‐B [ADL‐OXB]
selectivity for the OX2 receptor over the OX1 receptor [7]: 400 fold

orexin‐B
fold higher affinity for the OX2 receptor than for the OX1 receptor [8]: 10 fold

Reference: publication PMC7722660 (Neuropsychopharmacology Reports, 2020)
